In patent US11833144B2, “Treating autoimmune disease” (Mayo Foundation for Medical Education and Research, priority 2020, dated 2023):

How the values were obtained:
Type in all cases: cell-based, mouse
murine B cells = test: Murine B cell proliferation (CellTrace Violet, cell number) and class switch to IgG1 in vitro
Protocol: Mouse B cells were isolated from pooled single cell suspensions of spleen and peripheral lymph nodes using CD19 Microbeads (Miltenyi) or Mouse B cell Isolation Kit (Stemcell Technologies). B cells were stimulated with LPS (10 μg/mL; Sigma-Aldrich) and recombinant IL-4 cytokine (10 ng/mL; Tonbo Bioscience) with or without SCD inhibitor SSI-4, and proliferation was measured by dilution of CellTrace Violet proliferation dye (Thermo Fisher Scientific). B cells were also stimulated with anti-IgM (10 μg/mL; Jackson ImmunoResearch), anti-CD40 (10 μg/mL; BioXcell) and IL-4 (10 ng/mL; Tonbo Bioscience), or TLR ligand CpG (2.5 μM; IDT), recombinant IL-4 and IL-5 (10 ng/mL; Tonbo Bioscience) cytokines. To test the function of monounsaturated and saturated fatty acids, B cells were activated in presence of exogenous fatty acid-BSA conjugate. Palmitoleic acid (NU-CHEK PREP, INC), palmitic acid (NU-CHEK PREP, INC), stearic acid (NU-CHEK PREP, INC) were conjugated with fatty acid free BSA (Sigma-Aldrich) as described elsewhere (Wang et al., Immunity 35:871-882 (2011)). Human B cells were activated with CpG OND2006 (2.5 μM; IDT), recombinant human cytokine IL-10 ([…]; Peprotech), IL-15 (10 ng/mL; Peprotech), IL-4 (10 ng/mL; Biolegend), IL-2 (10 unit/mL) and anti-human CD40 (1 μg/mL; BioXcell). Human B cell proliferation was measured by ^3[H]-thymidine incorporation (1 μCi/mL) (American Radiolabeled Chemicals). For analysis of surface markers, cells were stained in PBS containing 1% (w/v) bovine serum albumin on ice for 30 minutes, with anti-IgG1 (RMG1-1, Biolegend), anti-CD19 (ID3, Biolegend) anti-B220 (RA3-6B2, Biolegend), anti-CD4 (GK1.5, Biolegend), anti-CD8 (53-6.7, Biolegend), anti-CD25 (PC16, Biolegend), anti-GL7 (GL-7, Biolegend), anti-CD95 (Jo2, BD Biosciences), anti-CD138 (281-2, Biolegend), anti-IgD (11-26c.2a, Biolegend), anti-PD-1 (J43, ThermoFisher), anti-IgM (II/41, ThermoFisher). Antigen specific GC response was detected with tetramer NP-phycoerythrin conjugated with PE (Biosearch Technologies). CXCR5 was stained with biotinylated anti-CXCR5 (2G8) followed by staining with streptavidin-conjugated PE (both from BD Biosciences). Cell viability was assessed using the Fixable Dye Ghost 510 (Tonbo Bioscience) or Annexin V cell apoptosis kit with 7-AAD (ThermoFisher) following the manufacturer's protocol. Phosflow staining for phospho-S6 (S235/236) was performed using Phosflow Fix/Perm kit (BD Biosciences). Mitochondrial potential was measured by staining with 20 nM TMRM (ThermoFisher) following manufacturer's instructions. Flow cytometry was performed on the LSR II, LSR Fortessa (BD Biosciences) or Attune NxT (ThermoFisher) cytometers, and analysis was performed using FlowJo software (Tree Star).

[1] = test system: LC3-I/LC3-II, p-S6, p-S6K, AID; test: Immunoblot of LC3-I/LC3-II, p-S6, p-S6K and AID in activated murine B cells
Protocol: For immunoblotting, cells were lysed in lysis buffer with protease and phosphatase inhibitors (Sigma-Aldrich). Protein concentration in samples were quantified by BCA assay (Thermo Fisher Scientific) before loading the samples for electrophoresis and membrane transfer. The transferred membrane was blocked with TBST (0.1% Tween 20) containing 5% BSA for 1 hour at room temperature. The membrane was incubated with primary antibodies overnight including anti-p-S6 (Ser235/Ser236, D57.2.2E; Cell Signaling), anti-p-p70 S6 kinase (Thr389, 108D2; Cell Signaling), anti-p-4E-BP1 (Thr37/46, 236B4; Cell Signaling), anti-LC3α/β (G-4; Santa Cruz); anti-p-ULK1 (Ser757, D706U; Cell Signaling), anti-AID (EK2 5G9; Cell Signaling), anti-β-actin (13E5; Sigma-Aldrich), and anti-SCD2 (H-12; Santa Cruz). Then, the membrane was washed and incubated with the corresponding secondary antibody for subsequent enhanced chemiluminescence (ECL; Thermo Fisher) exposure. The band intensity of all the immunoblot was analyzed by ImageJ software.

activated murine B cells = test: Seahorse OCR / ECAR in activated murine B cells
Protocol: The bioenergetic activities of the OCR and ECAR were measured using a Seahorse XFe96 Extracellular Flux Analyzed following established protocols (Agilent). Briefly, B cells were seeded at 200,000 cells/well on Cell-Tak (Corning) coated XFe96 plate with fresh XF media (Seahorse XF RPMI medium containing 10 mM glucose, 2 mM L-glutamine, and 1 mM sodium pyruvate, PH 7.4; all reagents from Agilent). OCR was measured in the presence of Oligomycin (1.5 μM; Sigma-Aldrich), FCCP (1.5 μM; Sigma-Aldrich), and Rotenone (1 μM; Sigma-Aldrich)/Antimycin A (1 μM; Sigma-Aldrich) in Mito Stress assay. For ECAR measurement, B cells were seeded in XFe96 plate with fresh Seahorse XF RPMI medium with 2 mM L-glutamine (PH 7.4), and treated with glucose (10 mM; Agilent), Oligomycin (1.5 and 2-DG (50 mM; Sigma-Aldrich) orderly in Glycolysis Stress assay.

Chop, Atf4, Sqstm1 = test: RT-PCR of ER stress-related genes in activated B cells
Protocol: For mRNA analysis, total mRNA was isolated from mouse and human B cells by RNeasy Micro kit (Qiagen), reverse transcribed from mRNA to cDNA for subsequent real-time PCR analysis. Scd1, Scd2, Fasn, Acaca, Chop, Atf4, Sqstm1 in mouse B cells and Scd, Fasn, Acaca expression in human B cells were measured by real-time PCR with a Bio-Rad Realtime PCR system. β-actin expression was used as control.

[2] = LPS/IL-4 activated, fatty acid-BSA conjugate, no inhibitor

| SMILES | rescue of proliferation defects caused by SCD inhibition (murine B cells; 100 nM SSI-4 plus exogenous 100 μM OA, 3 days, LPS/IL-4/IL-5, anti-IgM/anti-CD40/IL-4 or CpG/IL-4/IL-5) | rescue of proliferation and IgG1 class switch in SCD1/2 deficient B cells (murine B cells; B cells from Scd1 and Scd2 deficient mice, LPS/IL-4) | rescue of proliferation and IgG1 class switch upon SSI-4 treatment (murine B cells; LPS/IL-4, SSI-4 with exogenous fatty acid) | B cell proliferation, exogenous fatty acid alone (murine B cells; [2]) | IgG1 class switch, exogenous fatty acid alone (murine B cells; [2]) | levels of p-S6K and p-S6 with exogenous OA ([1]; SSI-4 treated or SCD1/2 deficient B cells plus OA) | increased LC3-II/LC3-I ratio with exogenous OA ([1]; SSI-4 treated or SCD deficient B cells plus OA) | OA mediated increase of basal respiration with titrated doses (activated murine B cells; exogenous OA 1, 10, 20 and 50) | glycolytic capacity of activated murine B cells (activated murine B cells; exogenous fatty acid, 48 h, Glycolysis Stress test) | B cell respiration (OCR) (activated murine B cells; exogenous fatty acid, 48 h, CpG/IL-4/IL-5 (PO: CpG and anti-IgM/anti-CD40) stimulation) | ER stress-related gene upregulation with exogenous OA (Chop, Atf4, Sqstm1; SSI-4 plus OA) | IgG1 class switch (murine B cells; LPS/IL-4, SCD inhibitor SSI-4 alone) | proliferation of mouse B cells (CTV dilution) (murine B cells; LPS/IL-4 activated, SCD inhibitor alone) | levels of p-S6K and p-S6 ([1]; SSI-4 treated B cells) | LC3-II/LC3-I ratio ([1]; SSI-4 treated B cells vs control cells) | expression of activation-induced cytidine deaminase (AID) ([1]; SSI-4 treatment) | B cell glycolysis (ECAR) under SCD inhibition (activated murine B cells; SSI-4, 48 hours) | B cell respiration (OCR) under SCD inhibition (activated murine B cells; SSI-4, 48 hours) | ER stress-related genes Chop, Atf4, Sqstm1 (Chop, Atf4, Sqstm1; SSI-4 treatment) |
| --- | --- | --- | --- | --- | --- | --- | --- | --- | --- | --- | --- | --- | --- | --- | --- | --- | --- | --- | --- |
| CCCCCCCC/C=C\CCCCCCCC(=O)O [OA, oleic acid] | able to rescue the proliferation defects | fully restored | fully restore both parameters | further enhanced | further enhanced | restored | completely rescued | dose dependent | increased the glycolytic capacity | enhanced B cell respiration | reduced these genes upregulation |  |  |  |  |  |  |  |  |
| CNC(=O)c1ccnc(NC(=O)N2CCC(Oc3ccccc3Cl)CC2)c1 [SSI-4, 2-{[4-(2-Chlorophenoxy)piperidine-1-carbonyl]amino}-N-methylpyridine-4-carboxamide] |  |  |  |  |  |  |  |  |  |  |  | strongly suppressed | capable of inhibiting B cell proliferation | decreased | substantial increase | Reduced expression | strongly suppressed | strongly suppressed | increased |
